The kinase profiling compilation of Christmann-Franck et al. (2016)
Several values for one entry are separate records, joined by “and”; a condition that tells them apart may be missing. Equal entries are not always repeated.

Experiments:
Assay in all cases: radiometric filter-binding kinase assay, Kinaseprofiler
[1] = test system: IRAK4 (human), Q9NWZ3 [A81V]; details: compound 1.0 µM; ATP 200 µM
MKNK2 (human) = MKNK2 (human) (UniProt Q9HBH9); details: compound 1.0 µM; ATP 120 µM
[2] = test system: MAPK14 (human), Q16539 [T106M]; details: compound 1.0 µM; ATP 90 µM
NEK11 (human) = NEK11 (human) (UniProt Q8NG66); details: compound 1.0 µM; ATP 200 µM
KDR (human) = KDR (human) (UniProt P35968); details: compound 1.0 µM; ATP 90 µM
MAPK14 (human) = MAPK14 (human) (UniProt Q16539); details: compound 1.0 µM; ATP 90 µM
[3] = test system: AKT2 (human), P31751 [S474D]; details: compound 1.0 µM; ATP 200 µM
PDPK1 (human) = PDPK1 (human) (UniProt O15530); details: compound 1.0 µM; ATP 10 µM
NTRK2 (human) = NTRK2 (human) (UniProt Q16620); details: compound 1.0 µM; ATP 90 µM
MAPK3 (human) = MAPK3 (human) (UniProt P27361); details: compound 1.0 µM; ATP 70 µM
PRKCD (human) = PRKCD (human) (UniProt Q05655); details: compound 1.0 µM; ATP 15 µM
TSSK2 (human) = TSSK2 (human) (UniProt Q96PF2); details: compound 1.0 µM; ATP 15 µM
CDK6 CCND3 (human) = CDK6 CCND3 (human) (UniProt P30281+Q00534); details: compound 1.0 µM; ATP 200 µM
SYK (human) = SYK (human) (UniProt P43405); details: compound 1.0 µM; ATP 15 µM
CSNK1D (human) = CSNK1D (human) (UniProt P48730); details: compound 1.0 µM; ATP 70 µM
TYRO3 (human) = TYRO3 (human) (UniProt Q06418); details: compound 1.0 µM; ATP 45 µM
CHEK2 (human) = CHEK2 (human) (UniProt O96017); details: compound 1.0 µM; ATP 70 µM
PAK3 (human) = PAK3 (human) (UniProt O75914); details: compound 1.0 µM; ATP 120 µM
MAPK13 (human) = MAPK13 (human) (UniProt O15264); details: compound 1.0 µM; ATP 15 µM
MAPK11 (human) = MAPK11 (human) (UniProt Q15759); details: compound 1.0 µM; ATP 45 µM
FER (human) = FER (human) (UniProt P16591); details: compound 1.0 µM; ATP 70 µM
SRPK1 (human) = SRPK1 (human) (UniProt Q96SB4); details: compound 1.0 µM; ATP 10 µM
PIM2 (human) = PIM2 (human) (UniProt Q9P1W9); details: compound 1.0 µM; ATP 15 µM
IRAK1 (human) = IRAK1 (human) (UniProt P51617); details: compound 1.0 µM; ATP 45 µM
STK33 (human) = STK33 (human) (UniProt Q9BYT3); details: compound 1.0 µM; ATP 155 µM
ALK (human) = ALK (human) (UniProt Q9UM73); details: compound 1.0 µM; ATP 200 µM
[4] = test system: MAPK9 (human), P45984 [S51N]; details: compound 1.0 µM; ATP 45 µM
PRKG1 (human) = PRKG1 (human) (UniProt Q13976); details: compound 1.0 µM; ATP 90 µM
PRKCA (human) = PRKCA (human) (UniProt P17252); details: compound 1.0 µM; ATP 45 µM
PTK6 (human) = PTK6 (human) (UniProt Q13882); details: compound 1.0 µM; ATP 15 µM
[5] = test system: AKT1 (human), P31749 [S478G]; details: compound 1.0 µM; ATP 155 µM
MAP3K7 (human) = MAP3K7 (human) (UniProt O43318); details: compound 1.0 µM; ATP 45 µM
RPS6KA4 KD1 KD2 (human) = RPS6KA4 KD1 KD2 (human) (UniProt O75676); details: compound 1.0 µM; ATP 45 µM
[6] = test system: MAPKAPK2 (human), P49137 [A399G]; details: compound 1.0 µM; ATP 90 µM
DAPK3 (human) = DAPK3 (human) (UniProt O43293); details: compound 1.0 µM; ATP 15 µM
CDK3 CCNE1 (human) = CDK3 CCNE1 (human) (UniProt Q00526+P24864); details: compound 1.0 µM; ATP 200 µM
ZAP70 (human) = ZAP70 (human) (UniProt P43403); details: compound 1.0 µM; ATP 15 µM
[7] = test system: GSK3A (human), P49840 [S449A]; details: compound 1.0 µM; ATP 10 µM

Chain of PRKG1 (human) (Q13976 whole entry, looked up): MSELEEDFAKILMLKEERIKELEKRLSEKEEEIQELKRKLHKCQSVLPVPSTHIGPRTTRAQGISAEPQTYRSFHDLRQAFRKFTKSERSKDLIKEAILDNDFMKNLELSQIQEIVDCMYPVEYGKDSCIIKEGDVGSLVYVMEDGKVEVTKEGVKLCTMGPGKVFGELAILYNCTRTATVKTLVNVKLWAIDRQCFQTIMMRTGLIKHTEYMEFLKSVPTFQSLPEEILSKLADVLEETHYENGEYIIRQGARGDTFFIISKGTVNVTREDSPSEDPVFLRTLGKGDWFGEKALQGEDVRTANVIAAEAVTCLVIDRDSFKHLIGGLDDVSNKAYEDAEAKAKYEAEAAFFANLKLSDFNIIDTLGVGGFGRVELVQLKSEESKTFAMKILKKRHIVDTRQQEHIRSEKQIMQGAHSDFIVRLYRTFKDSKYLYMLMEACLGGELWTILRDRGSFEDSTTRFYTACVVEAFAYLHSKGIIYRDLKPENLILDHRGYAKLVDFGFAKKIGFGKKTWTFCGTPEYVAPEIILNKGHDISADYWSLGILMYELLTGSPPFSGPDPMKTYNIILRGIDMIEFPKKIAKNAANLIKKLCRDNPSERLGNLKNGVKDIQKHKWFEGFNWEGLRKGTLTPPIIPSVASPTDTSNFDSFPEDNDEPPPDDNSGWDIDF
Chain of NEK11 (human) (Q8NG66 whole entry, looked up): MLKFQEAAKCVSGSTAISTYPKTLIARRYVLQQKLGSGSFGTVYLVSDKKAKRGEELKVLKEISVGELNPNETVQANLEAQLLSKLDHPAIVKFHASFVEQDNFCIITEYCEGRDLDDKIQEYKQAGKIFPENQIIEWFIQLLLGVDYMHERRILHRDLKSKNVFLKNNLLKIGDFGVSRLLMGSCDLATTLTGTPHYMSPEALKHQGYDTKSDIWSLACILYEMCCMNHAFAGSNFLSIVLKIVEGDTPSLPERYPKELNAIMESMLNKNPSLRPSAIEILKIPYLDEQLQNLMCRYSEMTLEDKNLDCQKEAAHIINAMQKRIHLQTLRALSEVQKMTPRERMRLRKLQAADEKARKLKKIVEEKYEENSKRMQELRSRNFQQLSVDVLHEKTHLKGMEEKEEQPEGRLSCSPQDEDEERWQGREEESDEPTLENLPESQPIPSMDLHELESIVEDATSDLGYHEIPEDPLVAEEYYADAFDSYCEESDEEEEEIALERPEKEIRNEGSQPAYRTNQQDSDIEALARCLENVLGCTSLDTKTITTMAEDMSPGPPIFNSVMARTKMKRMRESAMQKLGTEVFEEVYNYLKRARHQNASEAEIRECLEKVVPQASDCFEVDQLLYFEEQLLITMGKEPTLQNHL
Chain of SRPK1 (human) (Q96SB4 whole entry, looked up): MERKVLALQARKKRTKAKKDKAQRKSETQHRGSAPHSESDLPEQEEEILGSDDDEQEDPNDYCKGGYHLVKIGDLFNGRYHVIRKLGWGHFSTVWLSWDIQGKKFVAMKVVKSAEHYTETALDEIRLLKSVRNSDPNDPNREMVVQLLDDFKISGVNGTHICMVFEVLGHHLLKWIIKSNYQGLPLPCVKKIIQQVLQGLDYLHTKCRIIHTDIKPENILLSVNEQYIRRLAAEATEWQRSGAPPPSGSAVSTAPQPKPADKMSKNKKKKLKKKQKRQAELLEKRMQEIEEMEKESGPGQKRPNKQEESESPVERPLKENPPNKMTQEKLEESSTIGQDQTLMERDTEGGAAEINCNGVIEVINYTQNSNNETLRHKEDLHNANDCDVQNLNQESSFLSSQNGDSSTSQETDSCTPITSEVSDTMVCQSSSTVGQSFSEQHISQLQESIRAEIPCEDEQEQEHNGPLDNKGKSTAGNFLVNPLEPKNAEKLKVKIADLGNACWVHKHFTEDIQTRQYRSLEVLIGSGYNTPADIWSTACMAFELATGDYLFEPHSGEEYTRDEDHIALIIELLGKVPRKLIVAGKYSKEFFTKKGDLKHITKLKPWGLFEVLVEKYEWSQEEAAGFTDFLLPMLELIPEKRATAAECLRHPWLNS
Chain of PTK6 (human) (Q13882 whole entry, looked up): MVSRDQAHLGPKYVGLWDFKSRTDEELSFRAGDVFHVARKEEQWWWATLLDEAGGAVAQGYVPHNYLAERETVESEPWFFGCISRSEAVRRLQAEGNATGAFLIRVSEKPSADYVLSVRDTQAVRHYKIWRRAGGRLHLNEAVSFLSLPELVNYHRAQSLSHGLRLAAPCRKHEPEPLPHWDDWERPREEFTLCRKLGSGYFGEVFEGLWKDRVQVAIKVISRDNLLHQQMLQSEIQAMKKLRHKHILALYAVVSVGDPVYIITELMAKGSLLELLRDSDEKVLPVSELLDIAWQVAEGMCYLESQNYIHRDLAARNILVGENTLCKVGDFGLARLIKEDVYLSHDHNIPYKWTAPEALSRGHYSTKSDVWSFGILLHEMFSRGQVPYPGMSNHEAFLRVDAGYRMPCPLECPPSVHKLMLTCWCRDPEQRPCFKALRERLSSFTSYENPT
Chain of IRAK1 (human) (P51617 whole entry, looked up): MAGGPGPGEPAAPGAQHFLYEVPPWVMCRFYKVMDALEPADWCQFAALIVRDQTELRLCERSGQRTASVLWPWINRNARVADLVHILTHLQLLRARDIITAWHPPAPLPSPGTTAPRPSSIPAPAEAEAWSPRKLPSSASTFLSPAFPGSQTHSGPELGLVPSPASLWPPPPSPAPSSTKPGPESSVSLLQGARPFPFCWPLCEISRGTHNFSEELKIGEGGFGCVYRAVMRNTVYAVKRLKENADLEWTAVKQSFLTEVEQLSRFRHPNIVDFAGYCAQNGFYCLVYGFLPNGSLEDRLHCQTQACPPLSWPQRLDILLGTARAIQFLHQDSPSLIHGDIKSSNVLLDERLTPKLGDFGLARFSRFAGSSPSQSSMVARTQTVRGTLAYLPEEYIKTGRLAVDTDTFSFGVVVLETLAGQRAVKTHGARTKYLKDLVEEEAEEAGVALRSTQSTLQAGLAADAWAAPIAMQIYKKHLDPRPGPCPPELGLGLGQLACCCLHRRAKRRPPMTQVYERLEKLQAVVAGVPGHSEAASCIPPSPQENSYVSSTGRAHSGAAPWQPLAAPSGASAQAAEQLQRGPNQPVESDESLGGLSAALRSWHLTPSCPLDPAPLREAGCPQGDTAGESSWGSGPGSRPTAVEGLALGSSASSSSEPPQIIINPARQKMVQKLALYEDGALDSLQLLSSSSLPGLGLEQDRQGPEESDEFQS
Chain of MAPK14 (human) (Q16539 whole entry, looked up): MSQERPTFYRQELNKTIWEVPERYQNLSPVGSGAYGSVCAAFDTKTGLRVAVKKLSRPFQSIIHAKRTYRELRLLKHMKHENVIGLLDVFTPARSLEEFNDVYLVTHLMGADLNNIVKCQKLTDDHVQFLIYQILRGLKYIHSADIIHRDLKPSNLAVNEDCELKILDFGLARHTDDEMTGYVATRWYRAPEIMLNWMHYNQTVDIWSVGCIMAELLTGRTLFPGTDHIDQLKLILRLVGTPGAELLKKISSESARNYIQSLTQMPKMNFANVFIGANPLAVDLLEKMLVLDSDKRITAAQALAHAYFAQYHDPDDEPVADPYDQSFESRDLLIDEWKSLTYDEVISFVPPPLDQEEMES
Chain of ZAP70 (human) (P43403 whole entry, looked up): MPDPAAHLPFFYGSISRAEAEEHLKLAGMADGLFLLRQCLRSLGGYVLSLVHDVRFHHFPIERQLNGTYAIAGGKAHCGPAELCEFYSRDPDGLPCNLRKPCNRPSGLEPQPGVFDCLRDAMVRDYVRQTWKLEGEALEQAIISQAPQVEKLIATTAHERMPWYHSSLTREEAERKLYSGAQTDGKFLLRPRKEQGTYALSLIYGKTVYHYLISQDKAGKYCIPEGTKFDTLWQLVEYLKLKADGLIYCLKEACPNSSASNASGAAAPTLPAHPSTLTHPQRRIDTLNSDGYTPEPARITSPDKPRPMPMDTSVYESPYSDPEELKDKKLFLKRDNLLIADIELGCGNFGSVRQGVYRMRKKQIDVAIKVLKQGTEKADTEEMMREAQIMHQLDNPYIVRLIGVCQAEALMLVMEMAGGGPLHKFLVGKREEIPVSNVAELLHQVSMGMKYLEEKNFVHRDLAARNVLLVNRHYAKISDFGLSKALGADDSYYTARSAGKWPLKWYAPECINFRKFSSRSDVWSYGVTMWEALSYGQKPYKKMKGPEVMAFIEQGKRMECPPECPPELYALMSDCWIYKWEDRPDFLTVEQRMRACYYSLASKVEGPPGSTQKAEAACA
Chain of CDK6 CCND3 (human) (P30281 whole entry, looked up): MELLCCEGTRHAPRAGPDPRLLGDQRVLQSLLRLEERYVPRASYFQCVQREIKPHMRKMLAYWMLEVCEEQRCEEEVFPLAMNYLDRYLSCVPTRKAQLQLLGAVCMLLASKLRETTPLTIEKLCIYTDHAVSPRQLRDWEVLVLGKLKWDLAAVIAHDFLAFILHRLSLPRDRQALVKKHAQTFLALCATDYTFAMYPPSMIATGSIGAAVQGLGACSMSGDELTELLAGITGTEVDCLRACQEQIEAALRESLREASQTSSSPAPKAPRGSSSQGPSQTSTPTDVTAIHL
Chain of CDK6 CCND3 (human) (Q00534 whole entry, looked up): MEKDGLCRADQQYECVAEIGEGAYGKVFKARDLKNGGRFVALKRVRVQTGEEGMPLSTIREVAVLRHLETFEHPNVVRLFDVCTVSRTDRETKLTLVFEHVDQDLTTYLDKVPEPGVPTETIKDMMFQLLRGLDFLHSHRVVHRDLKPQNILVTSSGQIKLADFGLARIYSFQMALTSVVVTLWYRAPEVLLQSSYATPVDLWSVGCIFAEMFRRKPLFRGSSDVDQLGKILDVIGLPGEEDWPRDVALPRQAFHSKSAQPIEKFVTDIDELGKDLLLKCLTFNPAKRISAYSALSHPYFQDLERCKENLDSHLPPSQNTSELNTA
Chain of MAPK14 (human), Q16539 [T106M] (Q16539 whole entry T106M, looked up): as the sequence (Q16539 whole entry, looked up) above, with T106M counted along it

CN(C)S(=O)(=O)Nc1ccc2ccc3ncc(-c4cnn(C)c4)cc3c(=O)c2c1
residual activity [1]: 14% | residual activity (MKNK2 (human)): 33% | residual activity [2]: 112% | residual activity (NEK11 (human)): 118% | residual activity (KDR (human)): 10% | residual activity (MAPK14 (human)): 124% | residual activity [3]: 89% | residual activity (PDPK1 (human)): 105% | residual activity (NTRK2 (human)): 15% | residual activity (MAPK3 (human)): 120% | residual activity (PRKCD (human)): 92% | residual activity (TSSK2 (human)): 83% | residual activity (CDK6 CCND3 (human)): 108% | residual activity (SYK (human)): 94% | residual activity (CSNK1D (human)): 98% | residual activity (TYRO3 (human)): 97% | residual activity (CHEK2 (human)): 93% | residual activity (PAK3 (human)): 99% | residual activity (MAPK13 (human)): 98% | residual activity (MAPK11 (human)): 113% | residual activity (FER (human)): 56% | residual activity (SRPK1 (human)): 102% | residual activity (PIM2 (human)): 98% | residual activity (IRAK1 (human)): 83% | residual activity (STK33 (human)): 90% | residual activity (ALK (human)): 0% | residual activity [4]: 88% | residual activity (PRKG1 (human)): 6% and -14% | residual activity (PRKCA (human)): 105% | residual activity (PTK6 (human)): 103% | residual activity [5]: 109% | residual activity (MAP3K7 (human)): 75% | residual activity (RPS6KA4 KD1 KD2 (human)): 121% | residual activity [6]: 104% | residual activity (DAPK3 (human)): 87% | residual activity (CDK3 CCNE1 (human)): 100% | residual activity (ZAP70 (human)): 127% | residual activity [7]: 86%
